Test results as given in the NIST ThermoML archive (doi:10.1016/j.tca.2018.08.017).
Values joined by “and” are separate entries in the source; they are usually repeats but may differ in a detail not shown here. Equal entries are not always repeated.

Conditions: 101.33 kPa, Liquid

CCCCCCCCCCCCCCCCCC [octadecane]
viscosity
Conditions	Concentric cylinders viscometry	Cone and plate viscometry
299.75 K	–	3.95 mPa·s
299.95 K	–	3.92 mPa·s
300.05 K	–	4.21 mPa·s
300.15 K	–	3.91 mPa·s and 4.12 mPa·s
300.35 K	–	3.89 mPa·s and 4.09 mPa·s
300.55 K	–	3.86 mPa·s
300.65 K	–	4.06 mPa·s and 4.17 mPa·s
300.75 K	–	3.84 mPa·s
300.85 K	–	3.84 mPa·s and 4.04 mPa·s
300.95 K	–	3.82 mPa·s
300.96 K	4.095 mPa·s	–
301.15 K	–	3.81 mPa·s and 4.02 mPa·s and 4.13 mPa·s
301.29 K	4.068 mPa·s [middle of 4 runs]	–
301.35 K	–	3.8 mPa·s and 4 mPa·s
301.36 K	4.052 mPa·s	–
301.55 K	–	3.8 mPa·s
301.65 K	–	3.98 mPa·s and 4.09 mPa·s
301.75 K	–	3.76 mPa·s and 3.74 mPa·s
301.76 K	4.011 mPa·s	–
301.84 K	4.009 mPa·s	–
301.85 K	–	3.96 mPa·s
301.95 K	–	3.77 mPa·s
302.05 K	–	3.71 mPa·s
302.15 K	–	3.76 mPa·s and 3.93 mPa·s and 4.04 mPa·s
302.18 K	3.967 mPa·s	–
302.35 K	–	3.72 mPa·s and 3.91 mPa·s
302.45 K	–	3.69 mPa·s
302.55 K	–	3.73 mPa·s
302.58 K	3.927 mPa·s	–
302.64 K	3.926 mPa·s	–
302.65 K	–	3.88 mPa·s and 4.01 mPa·s
302.75 K	–	3.71 mPa·s
302.85 K	–	3.85 mPa·s and 3.66 mPa·s
302.95 K	–	3.69 mPa·s
302.96 K	3.884 mPa·s	–
303.15 K	–	3.72 mPa·s [middle of 6 runs]
303.35 K	–	3.67 mPa·s and 3.81 mPa·s
303.38 K	3.837 mPa·s [middle of 5 runs]	–
303.4 K	3.838 mPa·s	–
303.42 K	3.846 mPa·s	–
303.55 K	–	3.63 mPa·s and 3.61 mPa·s
303.65 K	–	3.78 mPa·s and 3.93 mPa·s
303.75 K	–	3.64 mPa·s
303.81 K	3.799 mPa·s	–
303.85 K	–	3.77 mPa·s and 3.59 mPa·s
303.95 K	–	3.65 mPa·s
304.15 K	–	3.6 mPa·s and 3.75 mPa·s and 3.89 mPa·s
304.19 K	3.769 mPa·s	–
304.21 K	3.762 mPa·s	–
304.25 K	–	3.56 mPa·s
304.35 K	–	3.58 mPa·s and 3.73 mPa·s
304.55 K	–	3.57 mPa·s and 3.53 mPa·s
304.58 K	3.727 mPa·s	–
304.65 K	–	3.7 mPa·s and 3.85 mPa·s
304.75 K	–	3.56 mPa·s
304.85 K	–	3.69 mPa·s
304.92 K	3.694 mPa·s	–
304.95 K	–	3.53 mPa·s and 3.51 mPa·s
305.08 K	3.678 mPa·s	–
305.15 K	–	3.55 mPa·s and 3.67 mPa·s and 3.81 mPa·s
305.25 K	–	3.48 mPa·s
305.35 K	–	3.5 mPa·s and 3.64 mPa·s
305.46 K	3.642 mPa·s	–
305.55 K	–	3.5 mPa·s
305.65 K	–	3.62 mPa·s and 3.47 mPa·s and 3.77 mPa·s
305.7 K	3.624 mPa·s	–
305.75 K	–	3.48 mPa·s
305.84 K	3.606 mPa·s	–
305.85 K	–	3.6 mPa·s
305.95 K	–	3.46 mPa·s
306.05 K	–	3.43 mPa·s
306.15 K	–	3.47 mPa·s and 3.58 mPa·s and 3.72 mPa·s
306.23 K	3.571 mPa·s	–
306.35 K	–	3.47 mPa·s and 3.56 mPa·s and 3.42 mPa·s
306.42 K	3.556 mPa·s	–
306.55 K	–	3.44 mPa·s
306.61 K	3.538 mPa·s	–
306.65 K	–	3.54 mPa·s and 3.69 mPa·s
306.75 K	–	3.42 mPa·s and 3.39 mPa·s
306.85 K	–	3.52 mPa·s
306.95 K	–	3.43 mPa·s
306.98 K	3.502 mPa·s	–
307.05 K	–	3.36 mPa·s
307.15 K	–	3.42 mPa·s and 3.5 mPa·s and 3.66 mPa·s
307.3 K	3.478 mPa·s	–
307.35 K	–	3.4 mPa·s and 3.49 mPa·s
307.37 K	3.469 mPa·s	–
307.45 K	–	3.35 mPa·s
307.55 K	–	3.39 mPa·s
307.65 K	–	3.47 mPa·s and 3.62 mPa·s
307.72 K	3.438 mPa·s	–
307.75 K	–	3.38 mPa·s and 3.32 mPa·s
307.84 K	3.426 mPa·s and 3.427 mPa·s	–
307.85 K	3.426 mPa·s	3.45 mPa·s
307.87 K	3.426 mPa·s	–
307.93 K	3.424 mPa·s	–
307.95 K	–	3.35 mPa·s
308.07 K	3.413 mPa·s	–
308.11 K	3.404 mPa·s	–
308.15 K	–	3.35 mPa·s [middle of 6 runs]
308.35 K	–	3.31 mPa·s and 3.42 mPa·s
308.55 K	–	3.29 mPa·s and 3.28 mPa·s
308.59 K	3.363 mPa·s	–
308.65 K	–	3.39 mPa·s and 3.53 mPa·s
308.75 K	–	3.29 mPa·s
308.83 K	3.349 mPa·s	–
308.85 K	–	3.37 mPa·s and 3.26 mPa·s
308.95 K	–	3.29 mPa·s
308.96 K	3.333 mPa·s	–
309.15 K	–	3.27 mPa·s and 3.36 mPa·s and 3.49 mPa·s
309.25 K	–	3.25 mPa·s
309.3 K	3.306 mPa·s	–
309.35 K	–	3.26 mPa·s and 3.34 mPa·s
309.55 K	–	3.28 mPa·s and 3.22 mPa·s
309.58 K	3.286 mPa·s	–
309.65 K	–	3.32 mPa·s and 3.45 mPa·s
309.68 K	3.276 mPa·s	–
309.75 K	–	3.24 mPa·s
309.85 K	–	3.3 mPa·s
309.95 K	–	3.22 mPa·s and 3.2 mPa·s
310.04 K	3.245 mPa·s	–
310.15 K	–	3.21 mPa·s and 3.28 mPa·s and 3.42 mPa·s
310.25 K	–	3.18 mPa·s
310.32 K	3.229 mPa·s	–
310.35 K	–	3.22 mPa·s and 3.26 mPa·s
310.41 K	3.218 mPa·s	–
310.55 K	–	3.18 mPa·s
310.65 K	–	3.25 mPa·s and 3.14 mPa·s and 3.38 mPa·s
310.75 K	–	3.17 mPa·s
310.77 K	3.19 mPa·s	–
310.85 K	–	3.24 mPa·s
310.95 K	–	3.15 mPa·s and 3.12 mPa·s
311.04 K	3.171 mPa·s	–
311.15 K	–	3.14 mPa·s and 3.22 mPa·s and 3.35 mPa·s
311.16 K	3.159 mPa·s	–
311.35 K	–	3.14 mPa·s and 3.2 mPa·s and 3.1 mPa·s
311.54 K	3.13 mPa·s	–
311.55 K	–	3.14 mPa·s
311.65 K	–	3.19 mPa·s and 3.32 mPa·s
311.75 K	–	3.12 mPa·s and 3.07 mPa·s
311.78 K	3.118 mPa·s	–
311.85 K	–	3.17 mPa·s
311.95 K	–	3.11 mPa·s
311.96 K	3.099 mPa·s	–
312.05 K	–	3.05 mPa·s
312.15 K	–	3.1 mPa·s and 3.15 mPa·s and 3.28 mPa·s
312.33 K	3.071 mPa·s	–
312.35 K	–	3.1 mPa·s and 3.14 mPa·s
312.45 K	3.065 mPa·s	3.04 mPa·s
312.55 K	–	3.07 mPa·s
312.65 K	–	3.12 mPa·s and 3.26 mPa·s
312.69 K	3.043 mPa·s	–
312.75 K	–	3.07 mPa·s and 3.01 mPa·s
312.85 K	–	3.1 mPa·s
312.95 K	–	3.07 mPa·s
313.15 K	–	3.04 mPa·s [middle of 6 runs]
313.18 K	3.011 mPa·s and 3.01 mPa·s	–
313.24 K	3.009 mPa·s	–
313.25 K	3.009 mPa·s	–
313.26 K	3.008 mPa·s and 3.011 mPa·s	–
313.34 K	3.01 mPa·s	–
313.35 K	–	3.01 mPa·s and 3.07 mPa·s
313.45 K	–	2.98 mPa·s
313.55 K	2.985 mPa·s	3.01 mPa·s
313.65 K	–	3.05 mPa·s and 3.21 mPa·s
313.75 K	–	3.01 mPa·s
313.85 K	–	3.04 mPa·s and 2.96 mPa·s
313.93 K	2.956 mPa·s	–
313.95 K	–	3 mPa·s
314 K	2.951 mPa·s	–
314.15 K	–	2.99 mPa·s and 3.02 mPa·s and 3.18 mPa·s
314.25 K	–	2.93 mPa·s
314.3 K	2.931 mPa·s	–
314.35 K	–	2.96 mPa·s and 3.01 mPa·s
314.55 K	–	2.97 mPa·s and 2.92 mPa·s
314.65 K	2.907 mPa·s	3 mPa·s and 3.16 mPa·s
314.67 K	2.905 mPa·s	–
314.75 K	–	2.97 mPa·s
314.85 K	–	2.98 mPa·s
314.95 K	–	2.94 mPa·s and 2.9 mPa·s
315.01 K	2.882 mPa·s	–
315.15 K	–	2.96 mPa·s and 2.97 mPa·s and 3.13 mPa·s
315.35 K	–	2.91 mPa·s and 2.95 mPa·s and 2.88 mPa·s
315.41 K	2.854 mPa·s	–
315.43 K	2.857 mPa·s	–
315.55 K	–	2.91 mPa·s
315.65 K	–	2.94 mPa·s and 2.87 mPa·s and 3.1 mPa·s
315.75 K	–	2.9 mPa·s
315.77 K	2.833 mPa·s	–
315.85 K	–	2.92 mPa·s
315.95 K	–	2.89 mPa·s
316.05 K	–	2.84 mPa·s
316.12 K	2.81 mPa·s	–
316.13 K	2.812 mPa·s	–
316.15 K	–	2.88 mPa·s and 2.9 mPa·s and 3.08 mPa·s
316.35 K	–	2.88 mPa·s and 2.89 mPa·s and 2.83 mPa·s
316.5 K	2.785 mPa·s	–
316.55 K	–	2.88 mPa·s
316.65 K	–	2.87 mPa·s and 2.81 mPa·s and 3.06 mPa·s
316.75 K	–	2.88 mPa·s
316.81 K	2.771 mPa·s	–
316.83 K	2.763 mPa·s	–
316.85 K	–	2.86 mPa·s
316.95 K	–	2.88 mPa·s
317.15 K	–	2.86 mPa·s [middle of 4 runs]
317.2 K	2.74 mPa·s	–
317.35 K	–	2.83 mPa·s and 2.84 mPa·s
317.45 K	–	2.79 mPa·s
317.46 K	2.732 mPa·s	–
317.55 K	–	2.82 mPa·s
317.61 K	2.715 mPa·s	–
317.65 K	–	2.84 mPa·s and 3.02 mPa·s
317.75 K	–	2.84 mPa·s and 2.83 mPa·s
317.95 K	–	2.82 mPa·s and 2.83 mPa·s
317.96 K	2.694 mPa·s	–
318.08 K	2.693 mPa·s	–
318.15 K	–	2.83 mPa·s [middle of 5 runs]
318.26 K	2.679 mPa·s	–
318.43 K	2.672 mPa·s	–
318.45 K	2.665 mPa·s	–
318.49 K	2.653 mPa·s	–
318.5 K	2.654 mPa·s	–
318.53 K	2.655 mPa·s	–
318.57 K	2.661 mPa·s	–
318.58 K	2.662 mPa·s	–
318.59 K	2.655 mPa·s	–
318.6 K	2.659 mPa·s	–
318.61 K	2.657 mPa·s	–
318.64 K	2.654 mPa·s	–
318.65 K	2.66 mPa·s	–
318.69 K	2.655 mPa·s	–
